Assay results from patent publication US4170645A, “Antibacterial agent BM123γ, salts and alkyl derivatives thereof for the control of shipping fever in cattle” (American Cyanamid Company, priority 1978, dated 1979).

Key:
shipping fever [1] = experiment: Gross necropsy findings of sacrificed treated calves; type: in vivo; conditions: Calf No. 4 (d), 4 days administered
Pasteurella = experiment: Bacterial isolation from tissues of sacrificed treated calves; type: in vivo; conditions: Calf No. 4, 4 days administered
Description: At the end of the experiment, six calves are sacrificed, and animal tissues examined for aerobic and anaerobic bacteria. Pasteurella are isolated and identified from three of the sacrificed calves. No anaerobes are recovered from any tissues.

shipping fever [2] = experiment: Efficacy in depressing the body temperature of calves having shipping fever (Example 1); type: in vivo; conditions: 13 mg/kg i.m., three or four consecutive days
Description: In vivo activity of BM123γ-hydrochloride and of isopropyl BM123γ for the control of shipping fever in calves.
Two hundred sick calves, with elevated temperatures and clinical signs of shipping fever are chosen for the experiment. The animals are allotted to four groups of 50 calves each. One group serves as nonmedicated, infected controls receiving placebos, the other groups receive intramuscular injections of the respective drugs for three or four consecutive days at the levels indicated in Table 1. […]

shipping fever [3] = experiment: Control of shipping fever in young cattle: mortality and days to return to normal temperature (Example 2); type: in vivo, calves; conditions: 11.0 mg/kg i.m., 3 daily injections
Description: In vivo activity of Isopropyl BM123γ for the control of shipping fever in young cattle as compared to oxytetracycline.
Calves weighing 90.6 to 181.2 Kg received at the feedlot are processed as is normally done, except no antibacterial treatment is given. Processing includes vaccination with Infectious Bovine Rhinotracheitis (Bovine virus Diarrhea) Leptospirosis vaccine, administration of a Clostridium novyi, septicum, sordelli, chauvei bacterin, levamisole (1/2 oblet), i.m. administration of 3 ml of a vitamin A, D and E formulation, a pour-on formulation of 0,0-dimethyl-0-(2,4,5-trichlorophenyl) ester of phosphorothioic acid for the control of grubs and lice, and one DES (diethylstilbestrol) implant in an ear. In addition--and at the same time--the calves are branded, ear tagged, dehorned and castrated where applicable.
One to two days after arrival and processing, sick calves are removed from the holding pens and those with temperatures of 40.0° C. or higher and showing symptoms of respiratory disease are selected for the study.
A total of 300 calves are randomly allotted to four groups of 75 calves each. One group serves as infected unmedicated controls receiving a "blank" solution, the others receive intramuscularly between hip and pin bones, for a total of 3 daily injections of:
a. 11 mg/kg body weight of oxytetracycline, the maximum recommended dose;
b. 0.5 mg/kg body weight of Isopropyl BM123γ; or
c. 1.0 mg/kg body weight of Isopropyl BM123γ.
The preparation and composition of injectables for "b" and "c" are described in Example 5 below.
Temperatures are recorded daily until two successive readings of 39.7° C. or lower are recorded, at which time calves are moved from the "sick" pen to the "recovered" pen. Although some of the "recovered" calves continue to show symptoms of disease, the criterion of body temperature is selected since it is completely objective.
One hundred fifty-four calves are treated the first day, fifty the second and 96 the third day. Following treatment, each animal is observed and its temperature recorded for a total of 14 consecutive days. Each animal which dies is necropsied and duplicate samples of lung and mediastinal lymph node are taken for microbiological examination. Necropsy examinations confirm the presence of severe pneumonia in most animals which died.
These calves died early in the study from conditions which the treatments should not have been expected to control.

P. hemolytica [4] = experiment: MIC by tube dilution method against P. hemolytica (Example 3); type: cell-based; conditions: 24 hours, 37° C.
Method: (§1) In vitro determination of the potency of Isopropyl BM123γ compared with oxytetracycline and gentamicin in selected bacterial isolates by a tube dilution method.
(§2) Serial two-fold dilutions of antibacterial agent are prepared in trypticase soy broth. To each tube containing 5 ml of broth, is added 0.1 ml of 10^-3 dilution of bacterial inoculum, adjusted prior to dilution of 44 percent transmission at 645 m,u. An inoculated broth, containing no drug is included as growth for each strain tested.

P. multocida [5] = experiment: In vitro minimal inhibitory concentration against P. multocida isolates (Example 1); type: cell-based
Method: (§3) Minimal inhibitory concentrations (MIC) of eight Pasteurella isolates are also determined.

P. multocida [6] = experiment: MIC by tube dilution method against P. multocida (Example 3); type: cell-based; conditions: 24 hours, 37° C.
Method: as §1, §2

P. hemolytica [7] = experiment: In vitro minimal inhibitory concentration against P. hemolytica isolates (Example 1); type: cell-based
Method: as §3

CN(C)C1C(=O)C(C(N)=O)=C(O)C2(O)C(=O)C3=C(O)c4c(O)cccc4C(C)(O)C3C(O)C12 (stereo not drawn) [Oxytetracycline]
Lung findings at necropsy (shipping fever [1]): The lungs were consolidated and had miliary abscesses in 60% of their volume | Bacteria isolated (Pasteurella): P. Hemolytica + P. multocida | Total cfu/g (Pasteurella; P. Hemolytica + P. multocida): 9.1 × 10^6 cfu/g | Calves below 39.4° C./total, 2 days after last Injection (shipping fever [2]): 22/38 | Percent of calves below 39.4° C., 2 days after last Injection (shipping fever [2]): 58% | Mean Temperature 2 days after last Injection (shipping fever [2]; mean initial 40.7): 39.4 °C | Mortality, Percent (shipping fever [3]): 5.6% | average number of days to return to normal temperature (shipping fever [3]): 5.33 days | Mortality, No. of Animals (shipping fever [3]; group of 75): 4 No. of Animals | Days to Normal, No. of Animals (shipping fever [3]; normal = two successive readings of 39.7° C. or lower): 72 No. of Animals

Gentamicin
MIC (P. hemolytica [4]; isolate No. 1): 8.0 µg/mL | MIC (P. hemolytica [4]; isolate No. 2): 8.0 µg/mL | MIC (P. hemolytica [4]; isolate No. 3): 4.0 µg/mL | MIC (P. hemolytica [4]; isolate No. 4): 8.0 µg/mL | MIC (P. hemolytica [4]; isolate No. 5): 4.0 µg/mL | MIC (P. multocida [5]; isolate No. 6): 2 µg/mL | MIC (P. multocida [5]; isolate No. 7): 2 µg/mL | MIC (P. multocida [5]; isolate No. 8): 2 µg/mL | MIC (P. multocida [6]; isolate No. 1): 4.0 µg/mL | MIC (P. multocida [6]; isolate No. 2): 4.0 µg/mL | MIC (P. multocida [6]; isolate No. 3): 8.0 µg/mL | MIC (P. multocida [6]; isolate No. 4): 4.0 µg/mL | MIC (P. multocida [6]; isolate No. 5): 4.0 µg/mL | MIC (P. multocida [6]; isolate No. 6): 4.0 µg/mL | MIC (P. multocida [6]; isolate No. 7): 4.0 µg/mL | MIC (P. hemolytica [7]; isolate No. 1): 4 µg/mL | MIC (P. hemolytica [7]; isolate No. 2): 8 µg/mL | MIC (P. hemolytica [7]; isolate No. 3): 2 µg/mL | MIC (P. hemolytica [7]; isolate No. 4): 4 µg/mL | MIC (P. hemolytica [7]; isolate No. 5): 4 µg/mL
